US20220125853A1, “MATERIALS AND METHODS FOR ENHANCING BONE CELL DIFFERENTIATION” (Mayo Foundation for Medical Education and Research, priority 2016, published 2022)

Legend:
[1] = system: MC3T3 cells; experiment: mRNAseq gene expression in differentiating MC3T3 cells / preosteoblasts; type: cell-based
Description: The molecular mechanisms by which EZH2 inhibition promotes osteogenic differentiation were assessed. […] This quiescent state is conducive for expression of bone-related extracellular matrix proteins (e.g., collagens) that support matrix mineralization. […] Several Wnt ligands (e.g., Wnt10b, Wnt10a, and Wnt6) are robustly expressed in differentiating MC3T3 cells.

[2] = system: skeletally mature mice; experiment: Bone anabolic effect of EZH2 inactivation in skeletally mature mice; type: in vivo
From the text: (§1) Bone stimulatory therapeutics that promote bone formation include bone morphogenetic proteins (e.g., BMP2) and intermittent treatment with parathyroid hormone (PTH) or PTH related protein, as well as antibody-suppression of WNT inhibitors (e.g., SOST). Furthermore, inactivation of EZH2, an epigenetic regulator with histone 3 lysine 27 (H3K27) methyltransferase activity, using a pharmacological inhibitor (GSK126) is bone anabolic in skeletally mature mice and osteo-protective in estrogen-depleted (ovariectomized) mice. These biological effects are directly related to the ability of EZH2 inhibition to promote osteogenic differentiation and inhibit adipogenic differentiation of mesenchymal stem cells.

[3] = system: estrogen-depleted (ovariectomized) mice; experiment: Osteo-protective effect of EZH2 inactivation in estrogen-depleted (ovariectomized) mice; type: in vivo
From the text: as §1

[4] = system: AMSCs; experiment: RNA-seq analysis of AMSCs in response to CytoD; type: cell-based, human; settings: 24 hour
From the text: (§2) The effect of CytoD on adipose tissue-derived MSCs (AMSCs) was investigated. AMSCs offer several advantages over other sources of MSCs, particularly in the ease of tissue harvest, isolation and expansion to generate sufficient cell numbers for therapy. Because AMSCs have limited osteogenic potential, it is necessary to design molecular strategies to improve their ability to attain a mature osteoblastic phenotype. […] Furthermore, CytoD decreased protein levels of Enhancer of Zeste Homolog 2 (EZH2), an epigenetic suppressor of osteogenic differentiation that mediates heterochromatinization of bone-related genes by trimethylation of histone 3 lysine 27 (H3K27me3).

[5] = system: Enhancer of Zeste Homolog 2 (EZH2); experiment: EZH2 protein levels and H3K27me3 marks in AMSCs; type: cell-based, human
From the text: as §2

[6] = system: adipose tissue-derived MSCs (AMSCs); experiment: Osteogenic differentiation of AMSCs (alkaline phosphatase activity, mineralization, osteogenic polypeptide expression); type: cell-based, human; settings: throughout the cell culture time-course
From the text: as §2

[7] = system: BMSCs; experiment: RNA-seq analysis of BMSCs in response to CytoD; type: cell-based; settings: 24 hour

Compound | expression of pro-osteogenic Wnt10b ([1]; differentiating MC3T3 cells, EZH2 inhibition) | expression of the PTH receptor (Pthr1h) ([1]; preosteoblasts) | effect on bone [2] | effect on bone [3] | program of other osteogenic markers, including those linked to the BMP2-RUNX2 axis (e.g., SP7) [4] | levels of H3K27me3 marks [5] | protein levels of EZH2 [5] | alkaline phosphatase activity [6] | expression of osteogenic polypeptides RUNX2, ALP, OPG and TGFβ3 [6] | mineralization [6] | program of other osteogenic markers, including those linked to the BMP2-RUNX2 axis (e.g., SP7) [7]
CC[C@H](C)n1cc(C)c2c(C(=O)NCc3c(C)cc(C)[nH]c3=O)cc(-c3ccc(N4CCNCC4)nc3)cc21 [GSK126] | greatly up-regulated | enhanced | bone anabolic | osteo-protective |  |  |  |  |  |  | 
C=C1[C@@H](C)[C@H]2[C@H](Cc3ccccc3)NC(=O)[C@]23[C@H](OC(C)=O)/C=C/[C@@](C)(O)C(=O)[C@@H](C)C/C=C/[C@H]3[C@@H]1O [CytoD, cytochalasin D] |  |  |  |  | significant upregulation | decreased levels | decreased | significant increases | significant increases | significant increases | significant upregulation
